Legend:
[1] = system: HEK-293 cells; assay: Nuclear localization in HEK-293 cells; assay type: cell-based, human
Procedure: To assess nuclear localization, LNCaP and HEK-293 cells were incubated with 1 MBq of [^64Cu]Cu-NOTA-TP-PSMA 1 for 24, 48, and 72 h. Nuclear extraction was performed following a previously established protocol. Following incubation, cells were lysed and fractionated using cytoskeletal buffer to isolate nuclear components. Nuclear and cytoplasmic radioactivity were measured using a HIDEX automatic gamma counter. Data were used to evaluate time-dependent nuclear accumulation of the tracer.

[2] = system: LNCaP cells; assay: Cellular uptake and internalization in LNCaP cells; assay type: cell-based
Procedure: LNCaP cells (1 × 10^5 cells/well) were seeded into 24-well plates and incubated for 72 h. Cells were treated with 1nM [^64Cu]Cu-NOTA-TP-PSMA or control monomers ([^64Cu]Cu-NOTA-TP and [^64Cu]Cu-NOTA-PSMA), each containing 0.1 MBq of radioactivity in RPMI-1640 medium.
Uptake and internalization were assessed at multiple time points (30 min to 24 h). At each timepoint, cells were washed with cold PBS, detached with trypsin, and counted using a hemocytometer. For internalization studies, surface-bound radioactivity was removed using 50 mM glycine-HCl buffer (pH 2.2) for 5 min, followed by additional PBS washes.
To investigate the internalization mechanism, parallel experiments were conducted at 4 °C to evaluate passive versus active uptake. Receptor specificity was assessed via blocking assays using 1 µM ^natCu-NOTA-TP-PSMA (1000-fold excess) co-incubated with 1 nM radiolabeled tracer. Post-incubation, intracellular radioactivity was quantified using a HIDEX gamma counter. All results were normalized to 10^6 cells and expressed as percent counts per minute per million cells (%CPM/10^6 cells).

[3] = system: HEK-293 cells; assay: Cellular uptake and internalization in HEK-293 cells; assay type: cell-based, human

For O=C(O)CC[C@H](NC(=O)N[C@@H](CCCCNC(=O)[C@@H](Cc1ccc2ccccc2c1)NC(=O)C1CCC(CNC(=O)C(CCCCNC(=O)c2cc3[n+]4c(c2)-c2cccc[n+]2[Pt-2]4([Cl])[n+]2ccccc2-3)NC(=O)COCCOCCNC(=O)CN2CCN3CCN(CC2)CC(=O)[O][64Cu][O]C(=O)C3)CC1)C(=O)O)C(=O)O (stereo partly shown) [[^64Cu]Cu-NOTA-TP-PSMA 1], the “Nuclear uptake HEK-293” value ([1]; Table S4, 24 h) was 0.08 ± 0.05 %ID/10⁶ cells, the “Nuclear uptake HEK-293” value ([1]; Table S4, 48 h) was 0.15 ± 0.06 %ID/10⁶ cells and the “Nuclear uptake HEK-293” value ([1]; Table S4, 72 h) was 0.85 ± 0.84 %ID/10⁶ cells. The “internalization fold greater in LNCaP than HEK-293” value ([2]; 24 h) was “approximately 6 fold”, the “uptake fold greater in LNCaP than HEK-293” value ([2]; 24 h) was “approximately 8 fold” and the “fold decrease of internalization/uptake at 4 °C versus 37 °C” value ([2]; LNCaP) was ~ 10 fold. For the same molecule, the “Internalization at 4 °C” value ([2]; LNCaP, 4 °C, 24 h) was 3.9 ± 0.5 %CPM/10^6 cells, the Internalization ([2]; LNCaP, 24 h, 37 °C, 1 nM) was 44.9 ± 7.3 %CPM/10^6 cells and the Uptake ([2]; LNCaP, 24 h, 37 °C, 1 nM) was 65.9 ± 8.6 %CPM/10^6 cells. The “fold decrease of internalization/uptake at 4 °C versus 37 °C” value ([2]; LNCaP, listed as [^64Cu]Cu-NOTA-TP-PSMA) was > 10 fold, the Uptake ([2]; Table S1, LNCaP, 1 h) was 16.52 ± 5.38 %ID/10⁶ cells and the Uptake blockage ([2]; Table S1, LNCaP, 1 h, 1 µM natCu-NOTA-TP-PSMA (1000-fold excess)) was 11.06 ± 5.93 %ID/10⁶ cells. For the same molecule, the Uptake blockage ([2]; Table S1, LNCaP, 2 h, 1000-fold excess blocking) was 16.36 ± 7.23 %ID/10⁶ cells, the Uptake ([2]; Table S1, LNCaP, 4 h) was 44.61 ± 16.49 %ID/10⁶ cells and the Uptake blockage ([2]; Table S1, LNCaP, 4 h, 1000-fold excess blocking) was 18.70 ± 10.46 %ID/10⁶ cells. For the same molecule, the Uptake ([2]; Table S1, LNCaP, 20 h) was 62.88 ± 9.10 %ID/10⁶ cells, the Uptake blockage ([2]; Table S1, LNCaP, 20 h, 1000-fold excess blocking) was 30.68 ± 11.43 %ID/10⁶ cells and the Uptake ([2]; Table S1, LNCaP, 24 h) was 65.87 ± 8.37 %ID/10⁶ cells. For the same molecule, the Uptake blockage ([2]; Table S1, LNCaP, 24 h, 1000-fold excess blocking) was 37.00 ± 13.09 %ID/10⁶ cells, the “Internalization LNCaP” value ([2]; Table S2, 1 h) was 11.91 ± 5.75 %ID/10⁶ cells and the “Uptake LNCaP” value ([2]; Table S2, 1 h) was 16.52 ± 5.53 %ID/10⁶ cells. For the same molecule, the “Internalization LNCaP” value ([2]; Table S2, 2 h) was 17.07 ± 6.19 %ID/10⁶ cells, the “Uptake LNCaP” value ([2]; Table S2, 2 h) was 28.67 ± 9.74 %ID/10⁶ cells and the “Internalization LNCaP” value ([2]; Table S2, 4 h) was 30.27 ± 8.92 %ID/10⁶ cells. The “Uptake LNCaP” value ([2]; Table S2, 4 h) was 44.61 ± 16.99 %ID/10⁶ cells, the “Internalization LNCaP” value ([2]; Table S2, 20 h) was 42.49 ± 9.41 %ID/10⁶ cells and the “Uptake LNCaP” value ([2]; Table S2, 20 h) was 62.88 ± 9.37 %ID/10⁶ cells. For the same molecule, the “Internalization LNCaP” value ([2]; Table S2, 24 h) was 44.94 ± 7.32 %ID/10⁶ cells, the “Uptake LNCaP” value ([2]; Table S2, 24 h) was 65.87 ± 8.61 %ID/10⁶ cells and the “fold higher internalization compared to [64Cu]Cu-NOTA-PSMA” value ([2]; cancer cells (LNCaP), 24 h) was 2.7 fold. The “fold higher internalization compared to [64Cu]Cu-NOTA-TP” value ([2]; cancer cells (LNCaP), 24 h) was 1.2 fold, the Internalization ([3]; HEK-293, 24 h) was 7.6 ± 1.7 % CPM/10^6 cells and the Uptake ([3]; HEK-293, 24 h) was 8.30 ± 1.63 %CPM/10^6 cells. The “Internalization HEK-293” value ([3]; Table S2, 1 h) was 4.46 ± 6.12 %ID/10⁶ cells, the “Uptake HEK-293” value ([3]; Table S2, 1 h) was 3.15 ± 0.53 %ID/10⁶ cells and the “Internalization HEK-293” value ([3]; Table S2, 2 h) was 3.34 ± 1.41 %ID/10⁶ cells. The “Uptake HEK-293” value ([3]; Table S2, 2 h) was 3.78 ± 0.95 %ID/10⁶ cells, the “Internalization HEK-293” value ([3]; Table S2, 4 h) was 3.26 ± 0.44 %ID/10⁶ cells and the “Uptake HEK-293” value ([3]; Table S2, 4 h) was 5.27 ± 1.00 %ID/10⁶ cells. For the same molecule, the “Internalization HEK-293” value ([3]; Table S2, 20 h) was 6.12 ± 0.88 %ID/10⁶ cells, the “Uptake HEK-293” value ([3]; Table S2, 20 h) was 8.00 ± 2.25 %ID/10⁶ cells and the “Internalization HEK-293” value ([3]; Table S2, 24 h) was 7.65 ± 1.67 %ID/10⁶ cells. For the same molecule, the “Uptake HEK-293” value ([3]; Table S2, 24 h) was 8.30 ± 1.63 %ID/10⁶ cells.

Source: PMC12692291, “Development and In Vitro Evaluation of [^64Cu]Cu-NOTA-TP-PSMA, a Novel Radiotheranostic Agent Against Prostate Cancer” (International Journal of Molecular Sciences, 2025)
